Assay results from patent publication US20160333419A1, “GENE SIGNATURES ASSOCIATED WITH SENSITIVITY TO MDM2 INHIBITORS” (DAIICHI SANKYO COMPANY, LIMITED, priority 2014, published 2016).

What was measured:
[1] = test system: BT-483; assay: OncoPanel cytotoxicity assay; assay type: cell-based; details: Homo sapiens, 72 hour incubation
How it was run: (§1)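 Cells grown in RPMI 1640 with 10% FBS (or a special medium) at 37° C, 5% CO2 were treated 24 hours after seeding for 72 hours with 10 concentrations (3.16-fold dilutions, 0.1% DMSO final). Nuclei were dye-stained and imaged; IC50 was fit from percent of control relative cell count.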

[2] = test system: CAL-54; assay: OncoPanel cytotoxicity assay; assay type: cell-based; details: Homo sapiens, 72 hour incubation
How it was run: as §1

[3] = test system: CRO-AP5; assay: OncoPanel cytotoxicity assay; assay type: cell-based; details: Homo sapiens, 72 hour incubation
How it was run: as §1

[4] = test system: IMR-32; assay: OncoPanel cytotoxicity assay; assay type: cell-based; details: Homo sapiens, 72 hour incubation
How it was run: as §1

[5] = test system: MDA-MB-175-VII; assay: OncoPanel cytotoxicity assay; assay type: cell-based; details: Homo sapiens, 72 hour incubation
How it was run: as §1

[6] = test system: T84; assay: OncoPanel cytotoxicity assay; assay type: cell-based; details: Homo sapiens, 72 hour incubation
How it was run: as §1

[7] = test system: VCaP; assay: OncoPanel cytotoxicity assay; assay type: cell-based; details: Homo sapiens, 72 hour incubation
How it was run: as §1

[8] = test system: WM-115; assay: OncoPanel cytotoxicity assay; assay type: cell-based; details: Homo sapiens, 72 hour incubation
How it was run: as §1

[9] = test system: ZR-75-1; assay: OncoPanel cytotoxicity assay; assay type: cell-based; details: Homo sapiens, 72 hour incubation
How it was run: as §1

[10] = test system: COR-L105; assay: OncoPanel cytotoxicity assay; assay type: cell-based; details: Homo sapiens, 72 hour incubation
How it was run: as §1

[11] = test system: COR-L23; assay: OncoPanel cytotoxicity assay; assay type: cell-based; details: Homo sapiens, 72 hour incubation
How it was run: as §1

[12] = test system: DMS273; assay: OncoPanel cytotoxicity assay; assay type: cell-based; details: Homo sapiens, DMS-273, 72 hour incubation
How it was run: as §1

[13] = test system: NCI-H69; assay: OncoPanel cytotoxicity assay; assay type: cell-based; details: Homo sapiens, 72 hour incubation
How it was run: as §1

[14] = test system: OE19; assay: OncoPanel cytotoxicity assay; assay type: cell-based; details: Homo sapiens, 72 hour incubation
How it was run: as §1

[15] = test system: OE21; assay: OncoPanel cytotoxicity assay; assay type: cell-based; details: Homo sapiens, 72 hour incubation
How it was run: as §1

[16] = test system: OE33; assay: OncoPanel cytotoxicity assay; assay type: cell-based; details: Homo sapiens, 72 hour incubation
How it was run: as §1

[17] = test system: CTG-0213 Melanoma; assay: Champions TumorGraft model, tumor growth inhibition; assay type: in vivo, mice; details: 100 mg/kg/dose p.o./qd × 10, TGI evaluation Day 7
Description: Patient-derived xenograft models (Champions TumorGraftTM; Champions Oncology, Inc., Hackensack, N.J.) were used. Champions TumorGraftsTM provide a highly focused, accelerated translational platform, which is based upon the implantation of primary human tumors in immune-deficient mice followed by propagation of the resulting low-passage Champions TumorGraftsTM in a manner that preserves the biological characteristics of the original human tumor. […] The TumorGraftsTM models allow a comparison of gene expression analysis of patients' cancer samples and Champions TumorGraftTM samples by microarray expression analysis. Large numbers (e.g., 30,000) of genes are analyzed. […] Female immunocompromised nu/nu mice (Harlan) between 6-9 weeks of age were housed on irradiated […]-enriched 1⁄8'' corncob bedding ([…]) in individual HEPA ventilated cages (Innocage® IVC, Innovive USA) and were kept on a 12-hour light-dark cycle at 68-74° F. (20-23° C.) and 30-70% humidity. Animals were fed water ad libitum (reverse osmosis, 2 ppm C12) and an irradiated Test rodent diet (Teklad 2919) consisting of 19% protein, 9% fat, and 4% fiber. Animals were implanted bilaterally in the flank region with tumor fragments harvested from tumored host animals, each implanted from a specific passage lot. Pre-study tumor volumes were recorded for each experiment beginning approximately one week prior to its estimated start date. When tumors reached approximately 125-250 mm^3, animals were matched by tumor volume into treatment and control groups, and dosing was initiated (Day 0). Animals in all studies were tagged and followed individually throughout the experiment. Initial dosing for standard agents began on Day 0; animals in all groups were dosed by weight (0.01 ml per gram; 10 ml/kg). Dose concentration(s), route(s) of administration and schedule(s) for each group are listed in the Experimental Design section, wherein “p.o./qd×10” indicates orally (by mouth) daily for 10 days. The experimental design of the human tumor graft model study is presented below in Table 4. “n” indicates the number of animals per group; “ROA” indicates route of administration of the test agent, i.e., the MDM2i drug. Beginning on Day 0, tumor dimensions were measured twice weekly by digital caliper and data including individual and mean estimated tumor volumes (Mean TV±SEM) were recorded for each group. Tumor volume was calculated using the formula (1): TV=width^2×length×0.52. At study completion, percent tumor growth inhibition (% TGI) values were calculated and reported for each treatment group (T) versus control (C) using initial (i) and final (f) tumor measurements and the formula (2): % TGI=1-Tf-Ti/Cf-C. The tumor growth inhibition (TGI) values on the scheduled dates closest to the last administration are summarized Table 5 below. In this example, the study duration was defined by the tumor size of the vehicle control. In some cases, for example, that of CTG-0213 in Table 5, required a longer time period for the tumor to reach a threshold size. As a result, the test animals treated with the MDM2i Compound B were also left for a longer time period, e.g., 40 days in the case of CTG-0213, without MDM2i treatment. […] Thus, the evaluation of TGI was set to be near the end of the treatment period, such as around Day 7-11 (around Day 9).

SMILES | IC50 [1] [µM] | IC50 [2] [µM] | IC50 [3] [µM] | IC50 [4] [µM] | IC50 [5] [µM] | IC50 [6] [µM] | IC50 [7] [µM] | IC50 [8] [µM] | IC50 [9] [µM] | IC50 [10] [µM] | IC50 [11] [µM] | IC50 [12] [µM] | IC50 [13] [µM] | IC50 [14] [µM] | IC50 [15] [µM] | IC50 [16] [µM] | % TGI [17] [%]
CC[C@@H]1CNC2(CC2)CN1C(=O)[C@@H]1C[C@@H](F)CN1C(=O)C1=C(C(C)C)N2C(=N[C@@](C)(c3ccc(Cl)nc3)[C@H]2c2ccc(Cl)c(F)c2)S1 [Compound A, [(5R,6S)-5-(4-Chloro-3-fluorophenyl)-6-(6-chloropyridin-3-yl)-6-methyl-3-(propan-2-yl)-5,6-dihydroimidazo[2,1-b][1,3]thiazol-2-yl][(2S,4R)-2-{[(6R)-6-ethyl-4,7-diazaspiro[2.5]oct-7-yl]carbonyl}-4-fluoropyrrolidin-1-yl]methanone] | 13.2 | 0.602 | 0.22 | 0.828 | > 40 | > 40 | > 40 | 0.564 | 1.5 |  |  |  |  |  |  |  | 
CC1(C)CCC2(CC1)N[C@@H](C(=O)N[C@@H]1CC[C@@H](C(N)=O)OC1)[C@H](c1ccnc(Cl)c1F)[C@]21C(=O)Nc2cc(Cl)ccc21 [Compound B, (3′R,4′S,5′R)—N-[(3R,6S)-6-carbamoyltetrahydro-2H-pyran-3-yl]-6″-chloro-4′-(2-chloro-3-fluoropyridin-4-yl)-4,4-dimethyl-2″-oxo-1″,2″-dihydrodispiro[cyclohexane-1,2′-pyrrolidine-3′,3″-indole]-5′-carboxamide] |  |  |  |  |  |  |  |  |  | 0.168 | 8.98 | 9.08 | > 10 | > 10 | 9.81 | 7.58 | 87
